Reference: US10265407B2, “Modular nanodevices for smart adaptable vaccines” (Yale University, priority 2007, dated 2019)

Tested on: dendritic cells
Settings: FCCP incorporated in PLGA-G4 or PLGA-G4-cyclodextrin nanoparticles; FIG. 8
Description: The prepared nanoparticles were tested for their ability to disrupt endosomes. Particles co-encapsulating the OVA peptide or GFP associated with the dendrimer were incubated at a concentration of 50 μg/ml with 1E5 BMDCs for 24 hours. Liposomal disruption was assessed both qualitatively via fluorescence microscopy of GFP in the cytosol or quantitatively by amount of OVA antigen presented via MHC Class I. Antigen presentation on Class I MHC takes place via cytosolic transport and OVA peptide/MHC Class I was detected specifically using the antibody 24D16-PE.

SMILES: N#CC(C#N)=NNc1ccc(OC(F)(F)F)cc1 [FCCP, carbonyl cyanide 4-(trifluoromethoxy) phenylhydrazone]
- ability to disrupt endosomes: significantly enhances
